For 31 compounds, EC50 and Emax results are on record in patent US20230000842A1, “METHODS OF TREATING CARTILAGE DISORDERS THROUGH INHIBITION OF CLK AND DYRK” (SAMUMED, LLC, priority 2019, published 2023).

Like-named read-outs stand apart in the source and are kept apart here.

The target in test [1] is CLK2 kinase (Homo sapiens, UniProt P49760). As to the kind of experiment: CLK2 kinase activity assay (Z-lyte FRET).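 Note: FRET read-out as coumarin to fluorescein emission ratio, unphosphorylated peptide as 0% and phosphorylated peptide as 100% controls, duplicate reactions, non-linear regression fit of dose-response curves.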 It is filed as biochemical. The note with it: Z-lyte Ser/Thr 6 peptide, 60 μM ATP, 1 h at room temperature.
In test [2] the target is CLK3 kinase (Homo sapiens, UniProt P49761). As to the kind of experiment: CLK3 kinase activity assay (Z-lyte FRET).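 Note: kinase activity read as coumarin/fluorescein emission ratio by FRET, unphosphorylated peptide as 0% and phosphorylated peptide as 100% control, values from non-linear regression of dose-response curves.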 The note with it: Z-lyte Ser/Thr 18 peptide, 156 μM ATP, 1 h at room temperature. It is filed as biochemical.
The test system of test [3] is primary human mesenchymal stem cells (hMSCs). The test is described as follows: Chondrogenesis screening using primary human mesenchymal stem cells. It is filed as cell-based. The note with it: hMSC chondrogenesis; for EC50: concentration required to induce 50% levels of chondrogenesis with TGF-β3 as positive control, read-out: Conc (nM) of 50% TGF-β3 activity; for Emax: maximum activity relative to TGF-β3 (10 ng/mL) positive control, read-out: Max. Activity as % TGF-β3 activity. The gist of the method: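 Derived values are EC50 for 50% chondrogenesis, maximal activity and the dose giving it. These come from nodule area in passage 3–6 primary hMSCs, expressed as fold change over the mean of 3 same-plate DMSO wells, 2–3 replicates per concentration. TGF-β3 served as positive control.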

Test [4] has as its system Wnt pathway activity (SW480 colon carcinoma cells stably expressing the Sp5-Luc reporter). The test is described as follows: Wnt pathway activity screening assay (Sp5-Luc reporter gene assay). The note with it: Homo sapiens, SW480, Table 4; SW480 cells stably expressing Sp5-Luc reporter, 10-point dose-response from 10 μM, 36 to 48 hours.
[5] abbreviates: Homo sapiens, Mesenchymal stem cells.

Sequence of CLK3 kinase (P49761 whole entry): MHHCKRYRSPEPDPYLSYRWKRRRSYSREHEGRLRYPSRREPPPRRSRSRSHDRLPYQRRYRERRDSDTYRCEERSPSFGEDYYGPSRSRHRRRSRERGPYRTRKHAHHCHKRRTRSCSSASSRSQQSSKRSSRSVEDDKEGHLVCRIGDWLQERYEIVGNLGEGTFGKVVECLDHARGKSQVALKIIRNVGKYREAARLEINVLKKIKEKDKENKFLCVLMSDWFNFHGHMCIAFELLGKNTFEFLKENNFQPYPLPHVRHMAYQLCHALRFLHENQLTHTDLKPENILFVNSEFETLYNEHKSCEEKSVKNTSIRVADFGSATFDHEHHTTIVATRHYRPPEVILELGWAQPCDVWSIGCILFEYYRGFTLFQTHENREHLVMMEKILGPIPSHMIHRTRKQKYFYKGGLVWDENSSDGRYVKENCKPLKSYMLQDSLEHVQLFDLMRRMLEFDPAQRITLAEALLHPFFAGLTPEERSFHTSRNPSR
Sequence of CLK2 kinase (P49760 whole entry): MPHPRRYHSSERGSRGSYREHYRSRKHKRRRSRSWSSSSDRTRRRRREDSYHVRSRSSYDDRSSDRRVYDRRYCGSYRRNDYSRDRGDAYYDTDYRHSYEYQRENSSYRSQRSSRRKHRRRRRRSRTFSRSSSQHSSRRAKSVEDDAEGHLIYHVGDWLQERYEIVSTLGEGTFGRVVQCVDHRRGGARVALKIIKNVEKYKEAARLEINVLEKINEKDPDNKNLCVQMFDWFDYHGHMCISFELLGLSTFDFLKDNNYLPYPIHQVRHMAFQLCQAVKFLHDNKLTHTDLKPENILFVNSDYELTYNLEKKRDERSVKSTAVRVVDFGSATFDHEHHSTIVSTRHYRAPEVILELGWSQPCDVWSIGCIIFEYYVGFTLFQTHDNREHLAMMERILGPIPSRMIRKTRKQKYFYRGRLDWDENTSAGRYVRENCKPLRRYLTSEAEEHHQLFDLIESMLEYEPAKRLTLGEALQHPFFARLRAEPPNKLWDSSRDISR

In the case of `Nc1cncc(-c2ccc3[nH]nc(-c4nc5c(-c6ccccc6F)ccnc5[nH]4)c3n2)c1` [compound 171], the EC50 is 1 nM in test [1], 34 nM in test [2], 10 nM in test [3] (setting [5]) and above 10000 nM in test [4]. The Emax in test [3] (setting [5]) came to 127%.
The corresponding values for `CC(C)C(=O)Nc1cncc(-c2cnc3[nH]nc(-c4cc5c(N6CCN(C)CC6)nccc5[nH]4)c3c2)c1` [compound 476] are 7 nM, 800 nM, 30 nM, above 10000 nM and 61.6%.
`CC(C)(C)C(=O)Nc1cncc(-c2cnc3[nH]nc(-c4cc5c(-c6ccncc6)cncc5[nH]4)c3c2)c1` [compound 391]: the EC50 in test [1] is 4 nM; in test [2], 62 nM; in test [4], above 10000 nM. In test [3] (setting [5]), the Emax stood at 33.6%.
With `Nc1cncc(-c2cnc3[nH]nc(-c4cc5c(-c6ccccc6F)nccc5[nH]4)c3c2)c1` [compound 321], the EC50 came to 7 nM in test [1], 67 nM in test [2], 30 nM in test [3] (setting [5]) and 197 nM in test [4]. The Emax in test [3] (setting [5]) came to 86%.
Take `Fc1cccc(-c2cncc3[nH]c(-c4n[nH]c5ccc(-c6cncc(CN7CCC(F)(F)C7)c6)cc45)nc23)c1` [compound 141]: the EC50 amounted to 9 nM in test [1], 33 nM in test [2], 30 nM in test [3] and 26.4 nM in test [4]. In test [3] (setting [5]), the Emax was found to be 102%.
With `CN1CCN(c2nccc3[nH]c(-c4n[nH]c5cnc(-c6cncc(NC(=O)c7ccccc7)c6)cc45)cc23)CC1` [compound 487], the EC50 in test [1] came to 5 nM; in test [2], 302 nM; in test [3] (setting [5]) it was 10 nM; in test [4], 2800 nM. In addition, the Emax in test [3] (setting [5]) was found to be 67%.
The matching figures for `CN(C)Cc1cncc(-c2cc3c(-c4cc5c(-c6ccncc6)cncc5[nH]4)n[nH]c3cn2)c1` [compound 399]: 4 nM, 188 nM, 30 nM, above 10000 nM and 51.7%.
The matching figures for `CC(C)Nc1cncc(-c2cnc3[nH]nc(-c4nc5c(-c6cc(F)cc(NCCN(C)C)c6)nccc5[nH]4)c3c2)c1` [compound 283]: 4 nM, 33 nM, 30 nM, 154 nM and 82.9%.
With `CCC(=O)Nc1cncc(-c2ccc3[nH]nc(-c4cc5c(-c6cccc(F)c6)nccc5[nH]4)c3c2)c1` [compound 302], the EC50 was found to be 6 nM in test [1], 46 nM in test [2] and 45 nM in test [4]. For the same compound, the Emax in test [3] (setting [5]) worked out at 16.2%.
Turning to `Fc1cccc(-c2ccnc3[nH]c(-c4n[nH]c5ncc(-c6cn[nH]c6)cc45)nc23)c1` [compound 153], the EC50 is 11 nM in test [1], 93 nM in test [2], 100 nM in test [3] (setting [5]) and 30.2 nM in test [4]. For the same compound, the Emax in test [3] (setting [5]) is 110%.
Consider `CCCC(=O)Nc1cncc(-c2cc3c(-c4nc5c(-c6cccc(F)c6)nccc5[nH]4)n[nH]c3cn2)c1` [compound 122], for which the EC50 in test [1] was determined as 11 nM; in test [2], 6960 nM; in test [3] (setting [5]), 10 nM; in test [4], 18.8 nM. In addition, in test [3] (setting [5]), the Emax came to 67.8%.
The corresponding values for `CS(=O)(=O)NCc1cc(F)cc(-c2nccc3[nH]c(-c4n[nH]c5ccc(-c6cncnc6)cc45)nc23)c1` [compound 293] are 16 nM, 186 nM, 30 nM, 40.5 nM and 73.1%.
The matching figures for `CS(=O)(=O)NCc1cc(F)cc(-c2nccc3[nH]c(-c4n[nH]c5cnc(-c6cncc(CNCC7CCCC7)c6)cc45)cc23)c1` [compound 534]: 4 nM, 471 nM, 30 nM, above 10000 nM and 52.3%.
As to `Cc1ccncc1-c1cnc2[nH]nc(-c3nc4c(-c5cc(F)cc(CNS(C)(=O)=O)c5)nccc4[nH]3)c2c1` [compound 289], the EC50 turned out to be 4 nM in test [1], 39 nM in test [2], 10 nM in test [3] (setting [5]) and 124 nM in test [4]. Moreover, in test [3] (setting [5]), the Emax worked out at 92.8%.
In the case of `COc1cncc(C(=O)Nc2c[nH]nc2C(=O)Nc2ccc(N3CCNCC3)nc2)c1` [compound 7], the EC50 in test [1] came to 14 nM; in test [2], 2360 nM; in test [4] it was 681 nM. Also, in test [3] (setting [5]), the Emax stood at 90.7%.
The matching figures for `CN1CCN(c2ccnc3[nH]c(-c4n[nH]c5ccc(-c6cncc(N)c6)cc45)cc23)CC1` [compound 471]: 3 nM, 89 nM, 1170 nM and 50.2%.
The corresponding values for `CC(C)Nc1cncc(-c2ccc3[nH]nc(-c4nc5c(-c6ccccc6F)cncc5[nH]4)c3c2)c1` [compound 177] are 6 nM, 209 nM, 1 nM and 56.8%.
In the case of `CC(C)C(=O)Nc1cncc(-c2cc3c(-c4cc5c(-c6cccc(F)c6)cncc5[nH]4)n[nH]c3cn2)c1` [compound 307], the EC50 stood at 13 nM in test [1], 307 nM in test [2] and 1730 nM in test [4]. For the same compound, the Emax in test [3] (setting [5]) was determined as 42.2%.
For `Cc1ncc(-c2cnc3[nH]nc(-c4nc5c(-c6cccc(F)c6)nccc5[nH]4)c3c2)n1C` [compound 159], the EC50 in test [1] was determined as 1 nM; in test [2], 34 nM; in test [3] (setting [5]) it was 100 nM; in test [4], 12.5 nM. Besides, the Emax in test [3] (setting [5]) came to 152%.
`CCNCc1cncc(-c2cnc3[nH]nc(-c4cc5c(-c6ccccc6F)cncc5[nH]4)c3c2)c1` [compound 334]: the results for the EC50 in test [1], in test [2] and in test [4] were 2 nM, 89 nM and 2300 nM, respectively. Moreover, the Emax in test [3] (setting [5]) was determined as 37.3%.
With `CN1CCN(c2nccc3[nH]c(-c4n[nH]c5cnc(-c6cncc(NC(=O)C7CCCCC7)c6)cc45)cc23)CC1` [compound 483], the EC50 in test [1] was 8 nM; in test [2], 303 nM; in test [3] (setting [5]), 10 nM; in test [4], 3420 nM. Moreover, in test [3] (setting [5]), the Emax was 60.8%.
Regarding `c1cncc(-c2ccnc3[nH]c(-c4n[nH]c5cnc(-c6cncnc6)cc45)cc23)c1` [compound 374], the EC50 was 19 nM in test [1], 9840 nM in test [2] and above 10000 nM in test [4]. Besides, in test [3] (setting [5]), the Emax came out at 49.6%.
With `COc1ccc(NC(=O)c2n[nH]c3ccc(-c4cncc(CN5CCCC5)c4)cc23)cn1` [compound 71], the EC50 in test [1] is 2 nM; in test [2] it was 109 nM; in test [3] (setting [5]), 30 nM; in test [4], 50 nM. In addition, the Emax in test [3] (setting [5]) was 63.1%.
In the case of `CC(C)CC(=O)Nc1cncc(-c2ccc3[nH]nc(-c4cc5c(-c6ccccc6F)nccc5[nH]4)c3n2)c1` [compound 326], the figures for the EC50 in test [1], in test [2] and in test [4] were 10 nM, 144 nM and 605 nM, respectively. Further, the Emax in test [3] (setting [5]) stood at 36.3%.
The corresponding values for `CC(C)Nc1cncc(-c2ccc3[nH]nc(-c4cc5c(-c6cccnc6)ccnc5[nH]4)c3c2)c1` [compound 361] are 5 nM, 164 nM, above 10000 nM and 45.5%.
The matching figures for `CCCC(=O)Nc1cncc(-c2ccc3[nH]nc(-c4nc5c(-c6ccsc6)cncc5[nH]4)c3c2)c1` [compound 246]: 3 nM, 21 nM, 61.5 nM and 42%.
In the case of `Cc1ccncc1-c1cc2c(-c3cc4cnccc4[nH]3)n[nH]c2cn1` [compound 416], the EC50 in test [1] came out at 3 nM; in test [2], 61 nM; in test [3] (setting [5]), 10 nM; in test [4], 389 nM. Moreover, the Emax in test [3] (setting [5]) was found to be 61.4%.
As to `CCC(=O)Nc1cncc(-c2cnc3[nH]nc(-c4nc5c(-c6cccs6)cncc5[nH]4)c3c2)c1` [compound 255], the EC50 in test [1] was 3 nM; in test [2] it was 62 nM; in test [4] it was 4 nM. For the same compound, in test [3] (setting [5]), the Emax turned out to be 69.8%.
The matching figures for `c1cncc(-c2cncc3[nH]c(-c4n[nH]c5ncc(-c6cncnc6)cc45)cc23)c1` [compound 373]: 4 nM, 156 nM, above 10000 nM and 24.1%.
The matching figures for `O=C(Nc1cncc(-c2ccc3[nH]nc(-c4cc5cccnc5[nH]4)c3c2)c1)C1CCCC1` [compound 429]: 9 nM, 365 nM, 271 nM and 30.2%.
Turning to `CC(C)Nc1cncc(-c2cnc3[nH]nc(-c4nc5c(-c6cccc(F)c6)cncc5[nH]4)c3c2)c1` [compound 131], the EC50 amounted to 13 nM in test [1], 160 nM in test [2], 30 nM in test [3] (setting [5]) and 1.2 nM in test [4]. Besides, the Emax in test [3] (setting [5]) is 504%.
